Data from patent US11834453B2, “Substituted pyrimido[5,4-d]pyrimidines as HER2 inhibitors” (Array BioPharma Inc., priority 2020, dated 2023).
Like-named read-outs stand apart in the source and are kept apart here.

Legend:
[1] = molecular target: ErbB2 with Exon 20 YVMA insertion (HER2-YVMA) (Homo sapiens (Human), UniProt P04626, INS775YVMA); assay: Cellular phosphorylation assay, constitutive ErbB2 phosphorylation (Y1196) in engineered NIH 3T3 cells, Assay 4; format: cell-based
Method in brief: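 In-cell Western in NIH 3T3 cells carrying ErbB2 exon 20 YVMA insertion, with no ligand stimulation. One hour compound exposure at 37 °C before fixation and anti-pY1196 plus GAPDH staining with dual-wavelength fluorescence. IC50 derived after GAPDH normalization.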

MDR1 (P-gp) [2] = molecular target: T1, MDR1 (P-gp) (Homo sapiens (Human), UniProt P08183); assay: MDR1 transfected LLC-PK1 permeability/efflux, Assay 6; conditions: pig, LLC-PK1, Assay 6 Pe Ratio, efflux ratio Papp(B-A)/Papp(A-B), MDR1 transfected LLC-PK1
Method: (§1) Both MDR1 transfected LLC-PK1 (Assay 6) and MDR1 transfected MDCKII canine Mdr1 knockout cells (Assay 7) were cultured and plated according to manufacturer's recommendations with the exception that the passage media for the MDR1 transfected LLC-PK1 cell line contained only 2% fetal bovine serum so as to extend passage time out to seven days.
(§2) Both positive and negative controls were used to assess functionality of P-gp or BCRP efflux in the assays. Stock solutions for assay controls and the test article were prepared in DMSO for final test concentration of 1 μM. Final organic concentration in the assay was 1%. All dosing solutions contained 10 μM lucifer yellow to monitor MDCKII cell monolayer integrity.
(§3) For the apical to basolateral determination (A to B), 75 μL of the test article in transport buffer were added to the apical side of the individual transwells and 250 μL of basolateral media, without compound or lucifer yellow, were added to each well. For the basolateral to apical determination (B to A), 250 μL of test article in transport buffer were added to each well and 75 μL transport buffer, without compound or lucifer yellow, were added to each transwell. All tests were performed in triplicate, and each compound was tested for both apical to basolateral and basolateral to apical transport. The plates were incubated for 2 hours on a Lab-Line Instruments Titer Orbital Shaker (VWR, West Chester, PA) at 50 rpm and 37° C. with 5% CO2. All culture plates were removed from the incubator, 50 μL of media were removed from the apical and basolateral portion of each well, and added to 150 μL of 1 μM labetalol in 2:1 acetonitrile (ACN): H2O, v/v.
(§4) The plates were read using a Molecular Devices (Sunnyvale, CA) Gemini Fluorometer to evaluate the lucifer yellow concentrations at excitation/emission wavelengths of 425/535 nm. These values were accepted when found to be below 2% for apical to basolateral and 5% basolateral to apical flux across the MDR1-transfected LLC-PK1 or BCRP-transfected MDCKII cell monolayers. The plates were sealed, and the contents of each well analyzed by LC MS/MS. The compound concentrations were determined from the ratio of the peak areas of the compound to the internal standard (labetalol) in comparison to the dosing solution.
(§5) A MDS Sciex API 4000 (Applied Biosystems, Foster City, CA) mass spectrometer was used for detection of the analytes in the ion spray positive mode. Analyte responses were measured by multiple reaction monitoring (“MRM”) of transitions unique to each compound (the protonated precursor ion and selected product ions for each test article and m/z 329 to m/z 162 for labetalol, the internal standard.
(§6) The total run time, including re-equilibration, for a single injection was 1.2 minutes. […] The total run time, including re-equilibration, for a single injection was 0.61 minutes.
(§7) An efflux ratio is calculated from the mean apical to basolateral (A-B) Papp data and basolateral to apical (B-A) Papp data: Efflux ratio=Papp(B−A)/Papp(A−B)

BCRP [3] = molecular target: T2, BCRP (Homo sapiens (Human), UniProt Q9UNQ0); assay: BCRP transfected MDCKII permeability/efflux, Assay 8; format: in vitro ADME; conditions: dog, efflux ratio Papp(B-A)/Papp(A-B), read-out: Assay 8 Pe Ratio
T2 sequence (Q9UNQ0 whole entry): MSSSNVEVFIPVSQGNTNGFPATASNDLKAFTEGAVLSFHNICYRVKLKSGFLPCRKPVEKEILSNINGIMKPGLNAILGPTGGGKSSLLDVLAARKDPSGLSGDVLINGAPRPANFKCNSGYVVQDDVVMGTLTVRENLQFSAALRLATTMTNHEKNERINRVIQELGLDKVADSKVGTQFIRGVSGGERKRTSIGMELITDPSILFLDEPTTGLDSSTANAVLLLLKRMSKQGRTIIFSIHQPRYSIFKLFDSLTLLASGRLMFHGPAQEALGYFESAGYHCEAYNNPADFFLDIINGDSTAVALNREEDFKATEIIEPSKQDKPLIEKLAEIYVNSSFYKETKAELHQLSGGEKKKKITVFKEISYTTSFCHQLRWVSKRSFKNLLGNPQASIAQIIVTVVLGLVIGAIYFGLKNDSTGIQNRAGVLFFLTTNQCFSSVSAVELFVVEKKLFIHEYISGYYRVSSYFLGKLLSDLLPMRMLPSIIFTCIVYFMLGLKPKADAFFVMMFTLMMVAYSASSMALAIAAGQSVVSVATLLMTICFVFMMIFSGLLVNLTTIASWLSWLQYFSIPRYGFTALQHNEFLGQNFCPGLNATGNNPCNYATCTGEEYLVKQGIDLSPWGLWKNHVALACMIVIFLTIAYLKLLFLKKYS
Method: (§8) BCRP transfected MDCKII cells (Assay 8) and BCRP transfected MDCKII canine Mdr1 knockout cells (Assay 9) were cultured and plated according to manufacturer's recommendations.
as §2, §3
(§9) The plates were read using a Molecular Devices (Sunnyvale, CA) Gemini Fluorometer to evaluate the lucifer yellow concentrations at excitation/emission wavelengths of 425/535 nm. […] The plates were sealed, and the contents of each well analyzed by LC MS/MS. The compound concentrations were determined from the ratio of the peak areas of the compound to the internal standard (labetalol) in comparison to the dosing solution.
as §5, §6, §7

EGFR wild type (EGFR WT) = EGFR wild type (EGFR WT) (Homo sapiens (Human), UniProt P00533); assay: Cellular phosphorylation assay, EGF-stimulated EGFR phosphorylation in engineered NIH 3T3 cells, Phospho-EGFR DuoSet IC ELISA, Assay 5; format: cell-based
Sequence of EGFR wild type (EGFR WT) (P00533 25-1210): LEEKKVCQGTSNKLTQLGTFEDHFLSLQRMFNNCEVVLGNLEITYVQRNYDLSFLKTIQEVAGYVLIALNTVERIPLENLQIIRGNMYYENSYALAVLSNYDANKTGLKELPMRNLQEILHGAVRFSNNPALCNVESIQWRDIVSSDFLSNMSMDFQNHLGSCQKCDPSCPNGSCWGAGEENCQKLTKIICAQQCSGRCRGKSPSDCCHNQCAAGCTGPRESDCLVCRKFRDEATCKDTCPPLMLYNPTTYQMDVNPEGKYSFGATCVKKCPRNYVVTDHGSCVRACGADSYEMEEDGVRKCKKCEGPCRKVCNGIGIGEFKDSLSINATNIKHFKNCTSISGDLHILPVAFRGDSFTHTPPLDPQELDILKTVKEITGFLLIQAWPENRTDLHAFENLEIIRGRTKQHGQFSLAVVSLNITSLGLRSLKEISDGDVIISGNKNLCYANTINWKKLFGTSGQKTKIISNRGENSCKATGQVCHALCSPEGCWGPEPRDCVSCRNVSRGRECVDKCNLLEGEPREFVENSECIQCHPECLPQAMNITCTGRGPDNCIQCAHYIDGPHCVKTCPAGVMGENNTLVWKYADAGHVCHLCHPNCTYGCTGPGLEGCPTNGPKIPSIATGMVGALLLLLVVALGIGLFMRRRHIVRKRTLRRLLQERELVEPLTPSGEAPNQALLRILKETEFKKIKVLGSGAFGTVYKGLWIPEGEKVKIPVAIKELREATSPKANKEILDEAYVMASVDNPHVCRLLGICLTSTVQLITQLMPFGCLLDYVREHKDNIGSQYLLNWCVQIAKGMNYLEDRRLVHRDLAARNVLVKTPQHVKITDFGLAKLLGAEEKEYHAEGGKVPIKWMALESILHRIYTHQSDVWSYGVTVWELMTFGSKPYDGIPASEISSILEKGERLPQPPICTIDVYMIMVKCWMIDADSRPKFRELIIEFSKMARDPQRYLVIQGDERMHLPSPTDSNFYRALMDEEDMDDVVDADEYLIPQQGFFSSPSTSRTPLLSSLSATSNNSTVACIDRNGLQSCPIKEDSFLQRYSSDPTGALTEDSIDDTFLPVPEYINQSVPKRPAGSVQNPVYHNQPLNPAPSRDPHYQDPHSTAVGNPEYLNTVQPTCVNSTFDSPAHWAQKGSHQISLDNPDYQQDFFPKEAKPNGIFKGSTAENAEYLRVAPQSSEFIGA
Method in brief: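 Phospho-EGFR ELISA on lysates of engineered NIH 3T3 EGFR WT cells, IC50 derived from concentration curves. Cells plated at 20,000/well overnight, given compound dilutions 1 h at 37 °C, then rEGF 100 ng/ml for a further 10 min before lysis.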

[4] = molecular target: ErbB2 insYVMA (HER2-YVMA, SEQ ID NO: 2) (Homo sapiens, UniProt P04626, INS775YVMA/P1170A); assay: biochemical; conditions: ErbB2 insYVMA enzyme assay
ErbB2 WT = ErbB2 WT (Homo sapiens (Human), UniProt P04626); assay: ErbB enzyme assay (CisBio HTRF KinEASE-TK), Assay 2; format: biochemical
Sequence of ErbB2 WT (P04626 23-1255): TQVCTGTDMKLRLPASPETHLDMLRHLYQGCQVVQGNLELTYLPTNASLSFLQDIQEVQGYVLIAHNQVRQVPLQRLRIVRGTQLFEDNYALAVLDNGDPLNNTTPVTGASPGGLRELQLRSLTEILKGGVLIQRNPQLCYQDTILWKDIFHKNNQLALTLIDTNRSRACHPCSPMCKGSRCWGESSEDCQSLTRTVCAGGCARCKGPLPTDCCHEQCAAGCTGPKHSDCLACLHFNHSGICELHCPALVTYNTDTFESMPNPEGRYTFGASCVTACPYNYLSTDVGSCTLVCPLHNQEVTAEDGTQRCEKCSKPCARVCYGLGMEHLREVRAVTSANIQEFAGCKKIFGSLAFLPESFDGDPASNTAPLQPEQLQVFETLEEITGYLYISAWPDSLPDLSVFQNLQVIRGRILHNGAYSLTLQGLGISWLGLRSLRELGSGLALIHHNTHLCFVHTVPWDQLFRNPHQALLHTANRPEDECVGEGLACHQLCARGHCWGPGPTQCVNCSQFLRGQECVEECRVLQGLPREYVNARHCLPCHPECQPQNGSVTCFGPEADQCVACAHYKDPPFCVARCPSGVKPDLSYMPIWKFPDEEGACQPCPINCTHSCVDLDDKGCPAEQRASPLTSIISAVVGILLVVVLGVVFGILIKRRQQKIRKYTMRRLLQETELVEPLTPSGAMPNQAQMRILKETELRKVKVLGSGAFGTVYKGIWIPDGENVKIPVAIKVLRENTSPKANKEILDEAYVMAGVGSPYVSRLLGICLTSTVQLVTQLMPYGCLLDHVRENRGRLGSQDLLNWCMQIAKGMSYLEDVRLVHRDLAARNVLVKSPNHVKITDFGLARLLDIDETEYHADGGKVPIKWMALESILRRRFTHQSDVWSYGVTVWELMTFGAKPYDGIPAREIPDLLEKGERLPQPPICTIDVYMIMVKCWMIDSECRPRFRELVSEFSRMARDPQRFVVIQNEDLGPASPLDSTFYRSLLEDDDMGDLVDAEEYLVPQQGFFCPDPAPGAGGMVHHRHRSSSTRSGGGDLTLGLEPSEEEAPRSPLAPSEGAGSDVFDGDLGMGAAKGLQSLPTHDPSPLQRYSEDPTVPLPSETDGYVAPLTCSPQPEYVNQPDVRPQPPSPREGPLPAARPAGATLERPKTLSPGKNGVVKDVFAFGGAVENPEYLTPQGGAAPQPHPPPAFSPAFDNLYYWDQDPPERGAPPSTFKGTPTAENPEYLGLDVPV
Method in brief: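 Readout is HTRF KinEASE-TK, using Sa-XL665 and cryptate antibody for 1 h at 22 °C, as percent of control between DMSO-only (100) and pre-quenched (0) reactions. The kinase reaction runs 30 min at 22 °C with 1 mM ATP and 250 nM biotinylated TK substrate, in HEPES pH 7.4 with MgCl2 and 2% DMSO.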

EGFR = EGFR (Homo sapiens (Human), UniProt P00533); assay: ErbB enzyme assay (CisBio HTRF KinEASE-TK), Assay 3; format: biochemical
Sequence of EGFR (P00533 25-1210): as the sequence (P00533 25-1210) above
Method in brief: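 IC50 was taken where a 4-parameter logistic fit crossed 50 percent of control (DMSO 100, pre-quenched 0), read by ratiometric HTRF. Reactions ran 30 min at 22 °C with 1 mM ATP and 250 nM TK-substrate biotin in pH 7.4 HEPES buffer with MgCl2, Triton X-100 and 2% DMSO.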

BCRP [5] = molecular target: T2, BCRP; conditions: dog, 2 h, 1 μM
Method: as §8, §2, §3, §9, §5, §6, §7

MDR1 (P-gp) [6] = molecular target: T1, MDR1 (P-gp); conditions: dog, MDCK-MDR1, 2 h, 1 μM
Method: as §1, §2, §3, §4, §5, §6, §7

MDR1 (P-gp) [7] = molecular target: T1, MDR1 (P-gp); conditions: pig, LLC-PK1, 2 h, 1 μM
Method: as §1, §2, §3, §4, §5, §6, §7

| Compound | IC50 [1] [nM] | efflux ratio at 2 h, 1 μM (MDR1 (P-gp) [2]) | efflux ratio at 2 h, 1 μM (BCRP [3]) | IC50 (EGFR wild type (EGFR WT)) [nM] | IC50 ([4]; Assay 1 IC50 (nM)) [nM] | IC50 (ErbB2 WT) [nM] | IC50 (EGFR) [nM] | Assay 9 Pe Ratio (BCRP [5]) | Assay 7 Pe Ratio (MDR1 (P-gp) [6]) | IC50 ([4]; read-out: Assay 1 IC50) [nM] | Assay 6 Pe Ratio (MDR1 (P-gp) [7]) |
| --- | --- | --- | --- | --- | --- | --- | --- | --- | --- | --- | --- |
| Cc1cc(Nc2ncnc3cnc(N4CCOCC4)nc23)ccc1Oc1ccc2scnc2c1.O=C(O)C(F)(F)F [Example 82, N-(4-(benzo[d]thiazol-5-yloxy)-3-methylphenyl)-6-morpholinopyrimido[5,4-d]pyrimidin-4-amine 2,2,2-trifluoroacetate] | 54.7 | 1.3 | 1 | ≥ 5000 | 47 | 204 | 1220 | – | – | – | – |
| Cc1cc(Nc2ncnc3cnc(N4[C@H]5CC[C@@H]4[C@@H](O)C5)nc23)ccc1Oc1ccc2c(c1)ncn2C (racemic) [Example 105, ±(1R,2S,4S)-7-(8-((3-methyl-4-((1-methyl-1H-benzo[d]imidazol-5-yl)oxy)phenyl)amino)pyrimido[5,4-d]pyrimidin-2-yl)-7-azabicyclo[2.2.1]heptan-2-ol] | 39 | – | – | 5000 | – | 48.5 | 10000 | 8.6 | 2.0 | 56.7 | – |
| Cc1cc(Nc2ncnc3cnc(N4CCC45CCOC5)nc23)ccc1Oc1ccc2c(c1)ncn2C (racemic) [Example 111, rac-(R)—N-(3-methyl-4-((1-methyl-1H-benzo[c]imidazol-5-yl)oxy)phenyl)-6-(6-oxa-1-azaspiro[3.4]octan-1-yl)pyrimido[5,4-d]pyrimidin-4-amine] | 13 | – | – | 5000 | – | 24 | 3530 | 1.6 | 1.7 | 28.2 | 1.3 |
| Cc1cc(Nc2ncnc3cnc(NCC4CC4)nc23)ccc1Oc1ccc2c(c1)ncn2C [Example 20, N2-(cyclopropylmethyl)-N8-(3-methyl-4-((1-methyl-1H-benzo[d]imidazol-5-yl)oxy)phenyl)pyrimido[5,4-d]pyrimidine-2,8-diamine] | 44.8 | 1.9 | 0.7 | ≥ 5000 | – | 130 | ≥ 10000 | – | – | 66.1 | – |
| Cc1cc(Nc2ncnc3cnc(N4[C@H]5CC[C@@H]4[C@H](O)C5)nc23)ccc1Oc1ccc2c(c1)ncn2C (racemic) [Example 104, ±(1R,2R,4S)-7-(8-((3-methyl-4-((1-methyl-1H-benzo[d]imidazol-5-yl)oxy)phenyl)amino)pyrimido[5,4-d]pyrimidin-2-yl)-7-azabicyclo[2.2.1]heptan-2-ol] | 31.8 | – | – | 5000 | – | 18.2 | 4680 | 16.0 | 1.4 | 18.6 | – |
| Cc1cc(Nc2ncnc3cnc(NC4(C)CC4)nc23)ccc1Oc1ccc2c(c1)ncn2C [Example 268] | 39 | 1.5 | 1.1 | ≥ 5000 | – | 93.7 | ≥ 10000 | – | – | 82 | – |
| Cc1cc(Nc2ncnc3cnc(NC4CCC4)nc23)ccc1Oc1ccc2c(c1)ncn2C [Example 14, N2-cyclobutyl-N8-(3-methyl-4-((1-methyl-1H-benzo[d]imidazol-5-yl)oxy)phenyl)pyrimido[5,4-d]pyrimidine-2,8-diamine] | 37 | 1.3 | 0.9 | ≥ 5000 | – | 85.9 | ≥ 10000 | – | – | 56.2 | – |
| Cc1c(Oc2ccc3c(c2)ncn3C)ccc(Nc2ncnc3cnc(N4CCOCC4)nc23)c1F [Example 263] | 16.1 | 0.9 | 1.5 | ≥ 5000 | – | 137 | ≥ 10000 | – | – | 57.6 | – |
| Cc1cc(Nc2ncnc3cnc(N(C)C)nc23)ccc1Oc1ccc2csnc2c1 [Example 49, N8-(4-(benzo[c]isothiazol-6-yloxy)-3-methylphenyl)-N2,N2-dimethylpyrimido[5,4-d]pyrimidine-2,8-diamine 2,2,2-trifluoroacetate] | 132 | 1.7 | 5.1 | ≥ 5000 | – | 241 | 2250 | – | – | 55.3 | – |
| Cc1cc(Nc2ncnc3cnc(N(C)C)nc23)ccc1Oc1ccc2scnc2c1 [Example 271] | 30.9 | 1.8 | 0.9 | 3080 | – | 145 | 1260 | – | – | 42.2 | – |
